The values that follow come from patent US20160362693A1, “Reagents and Methods for Treating Cancer” (PeptiMed, Inc., priority 2010, published 2016).

What all share (format): cell-based, human
One series concerns ES-2 ovarian tumor cells. Briefly: Viability of ovarian tumor cells after siRNA transfection (trypan blue count). The conditions noted are these: 50 nM siRNA, DharmaFECT, 96 hours, vs control siRNA. As for the experimental part: (§1) Each of the five siRNA duplexes presented in Table 2 were introduced into cultures of ovarian tumor cells at a concentration of 50 nM. Briefly, fifty to one hundred thousand tumor cells were added to each well of a 6 well plate and allowed to attach to the surface and grow for 18 hours in DMEM medium containing 10% fetal bovine serum. A total of 100 pmol of each siRNA was introduced into cells using 1 microliter DharmaFECT (Thermo Scientific) reagent in 2 ml total volume of media. Cells were incubated with the siRNA for 96 hours. The viability of the ovarian tumor cells was assessed by counting cells with a hemocytometer following trypan blue exclusion staining. Each of the five sequences reduced the number of viable cells at least 40% (compared to control siRNA-treated cells) in at least one ovarian tumor cell line.

For a further series, the system named is PA-1 ovarian tumor cells. Described as above. The conditions noted are these: 50 nM siRNA, DharmaFECT, 96 hours, vs control siRNA. As for the experimental part: as §1
Series [1] relates to OV-90 ovarian tumor cells. The series is described as above. The conditions noted are these: 50 nM siRNA, DharmaFECT, 96 hours, vs control siRNA. As for the experimental part: as §1
Series [2] has as its system TOV-112D ovarian tumor cells. The series is described as above. The conditions noted are these: 50 nM siRNA, DharmaFECT, 96 hours, vs control siRNA. As for the experimental part: as §1
The subject of series [3] is SK-OV-3 ovarian tumor cells. The description is as above. The conditions noted are these: 50 nM siRNA, DharmaFECT, 96 hours, vs control siRNA. As for the experimental part:
as §1

In series [4] the test system is UWB1.289 ovarian tumor cells. Described as above. The conditions noted are these: 50 nM siRNA, DharmaFECT, 96 hours, vs control siRNA. As for the experimental part: as §1
The subject of series [5] is Caov-3 ovarian tumor cells. The description is as above. The conditions noted are these: 50 nM siRNA, DharmaFECT, 96 hours, vs control siRNA. As for the experimental part:
as §1

Series [6] concerns OVCAR3 ovarian tumor cells. Described as above. The conditions noted are these: 50 nM siRNA, DharmaFECT, 96 hours, vs control siRNA. As for the experimental part: as §1
The next series has as its system TOV-112D cells. Briefly: Concentration-dependent effect of siRNA on cell survival (IC50). The conditions noted are these: cell viability 96 hours after adding siRNA, FIG. 6B, read-out: IC50 (concentration of siRNA that inhibited growth by 50%). As for the experimental part:
(§2) FIG. 6A and FIG. 6B show concentration-dependent effects of siRNA against the EVI1 gene on cell survival. Ovarian tumor cells ES-2 and TOV-112D were seeded into each well of a 12 well plate. Increasing concentrations of siRNA were introduced into the cells using 1 microliter of Dharmafect reagent in 2 ml of medium. The number of viable cells was determined using trypan blue staining and counting in a hemacytometer.
(§3) For a substance to be an effective cancer therapeutic agent, it needs a robust cancer killing effect at very low concentrations, which for siRNA will be understood to be at subnanomolar concentrations in cell culture. The concentration of siRNA that inhibited growth of ovarian tumor cells by 50% (IC50) was determined by measuring cell viability 96 hours after adding one of various dose levels of siRNA to identical numbers of tumor cells in culture. […] For TOV-112D cells, the IC50 of siEVI1-979 (SEQ ID NOs 9-10) is ˜4 nM, and the IC50 of siEVI1-2910 (SEQ ID NOs 13-14) is ˜0.8 nM. To further identify potent sequences that inhibit the growth of ovarian tumor cells, sequences of up to 10 bp upstream and 10 bp downstream of siEVI1-2910 (SEQ ID NOs: 121-160) were prepared and administered to ES-2 and TOV-112D ovarian tumor cells at a concentration of 2.5 nM using DharmaFECT transfection reagent. FIG. 7A depicts the results of percent growth inhibition of TOV-112D ovarian tumor cells relative to a transfection control. […] FIG. 7B depicts the results of percent growth inhibition of ES-2 ovarian tumor cells relative to a transfection control.

For the next series, the system named is ES-2 cells. The description is as above. The settings on record: cell viability 96 hours after adding siRNA, FIG. 6A, read-out: IC50 (concentration of siRNA that inhibited growth by 50%). As for the experimental part: as §2, §3
A further series has as its system MCF-7 breast tumor cells. In words: Viability of breast tumor cells after siRNA transfection (trypan blue count). More on the design: dose or concentration left out as unconfirmed. The conditions noted are these: DharmaFECT, 96 hours, vs control siRNA. As for the experimental part:
as §1, with “of breast” for “of ovarian”, “serum. […]” for “serum. A total of 100 pmol of each siRNA was introduced into cells using 1 microliter DharmaFECT (Thermo Scientific) reagent in 2 ml total volume of media.”, “the breast” for “the ovarian”, “blue exclusion.” for “blue exclusion staining.”

The subject of the next series is PC3 prostate tumor cells. Briefly: Viability of prostate tumor cells after siRNA transfection (trypan blue count). The settings on record: 50 nM siRNA, DharmaFECT, 96 hours, vs control siRNA. As for the experimental part:
as §1, with “prostate” for “ovarian”, “[…]” for “100 pmol”, “DharmaFECT” for “DharmaFECT (Thermo Scientific)”

Series [7] concerns LNCaP prostate tumor cells. Described as above. The conditions noted are these: 50 nM siRNA, DharmaFECT, 96 hours, vs control siRNA. As for the experimental part:
as §1, with “prostate” for “ovarian”, “[…]” for “100 pmol”, “DharmaFECT” for “DharmaFECT (Thermo Scientific)”

In a further series the test system is Hs832.Tc cells. In words: Viability of ovarian cells after siRNA transfection (trypan blue count). The settings on record: 50 nM siRNA, DharmaFECT, 96 hours, vs control siRNA. As for the experimental part:
as §1

Series [8] relates to MDA-MB-231 breast tumor cells. In words: Viability of breast tumor cells after siRNA transfection (trypan blue count). Also noted: dose or concentration left out as unconfirmed. The settings on record: DharmaFECT, 96 hours, vs control siRNA.

For “siEVI1-2910: siRNA duplex; sense 5′-ggaauguggaggagagaauuu-3′ SEQ ID NO: 13, antisense SEQ ID NO: 14 (sense GGAAUGUGGAGGAGAGAAUUU; antisense AUUCUCUCCUCCACAUUCCUU; listed as RNA, chemistry not given here)”, the “Response to siRNA (% growth inhibition)” value in the series on ES-2 ovarian tumor cells turned out to be 92%; in the series with PA-1 ovarian tumor cells, 0%; in series [1], 23%; in series [2] it was 85%; in [3], 12%; in series [4], 67%. In addition, the “Response to siRNA (% growth inhibition)” value in [5] was 47%; in series [6], 73%; in the series on MCF-7 breast tumor cells, 67%; in the series on PC3 prostate tumor cells it was 53%; in series [7] it was 46%; in the series on Hs832.Tc cells, 0%. For the same substance, in series [8], the “Response to siRNA (% growth inhibition)” value is listed as 21%. For the same substance, the IC50 is ~0.8 nM in the series with TOV-112D cells and ~0.5 nM in the series with ES-2 cells.

As for “siEVI1-979: siRNA duplex; sense 5′-gugcaaagacuguggacaauu-3′ SEQ ID NO: 9, antisense SEQ ID NO: 10 (sense GUGCAAAGACUGUGGACAAUU; antisense UUGUCCACAGUCUUUGCACUU; listed as RNA, chemistry not given here)”, the “Response to siRNA (% growth inhibition)” value was 63% with ES-2 ovarian tumor cells; 0% with PA-1 ovarian tumor cells; 16% in [1]; 79% in series [2]; 42% in [3]; 14% in series [4]. In addition, the “Response to siRNA (% growth inhibition)” value in series [5] is given as 34%; in series [6], 60%; with MCF-7 breast tumor cells, 0%; in the series with PC3 prostate tumor cells it was 8%; in series [7], 12%; in the series with Hs832.Tc cells, 0%. In addition, in series [8], the “Response to siRNA (% growth inhibition)” value came to 14%. Further, the IC50 with TOV-112D cells was ~4 nM; with ES-2 cells, ~2.5 nM.

In the case of “siEVI1-2994: siRNA duplex; sense 5′-augaagaaguugaagaugauu-3′ SEQ ID NO: 15, antisense SEQ ID NO: 16 (sense AUGAAGAAGUUGAAGAUGAUU; antisense UCAUCUUCAACUUCUUCAUUU; listed as RNA, chemistry not given here)”, the “Response to siRNA (% growth inhibition)” value in the series on ES-2 ovarian tumor cells was 54%; with PA-1 ovarian tumor cells, 18%; in series [1], 33%; in series [2] it was 70%; in series [3], 0%; in series [4], 0%. The “Response to siRNA (% growth inhibition)” value in series [5] was found to be 28%; in [6], 0%; in the series with MCF-7 breast tumor cells, 57%; in the series on PC3 prostate tumor cells it was 25%; in series [7], 12%; with Hs832.Tc cells, 0%. Also, the “Response to siRNA (% growth inhibition)” value in series [8] came out at 21%.

For “siEVI1-256: siRNA duplex; sense 5′-ccagauaaaugaucagauauu-3′ SEQ ID NO: 7, antisense SEQ ID NO: 8 (sense CCAGAUAAAUGAUCAGAUAUU; antisense UAUCUGAUCAUUUAUCUGGUU; listed as RNA, chemistry not given here)”, the “Response to siRNA (% growth inhibition)” value in the series with ES-2 ovarian tumor cells is 0%; in the series on PA-1 ovarian tumor cells, 0%; in series [1] it was 26%; in series [2] it was 36%; in [3] it was 12%; in series [4], 43%. Also, the “Response to siRNA (% growth inhibition)” value was 13% in series [5]; 0% in [6]; 32% with MCF-7 breast tumor cells; 23% in the series with PC3 prostate tumor cells; 4% in series [7]; 0% in the series on Hs832.Tc cells. For the same substance, in series [8], the “Response to siRNA (% growth inhibition)” value was determined as 31%.

“siEVI1-992: siRNA duplex; sense 5′-ggacaaauguucagcacuauu-3′ SEQ ID NO: 11, antisense SEQ ID NO: 12 (sense GGACAAAUGUUCAGCACUAUU; antisense UAGUGCUGAACAUUUGUCCUU; listed as RNA, chemistry not given here)”: the “Response to siRNA (% growth inhibition)” value in the series with ES-2 ovarian tumor cells was 54%; in the series with PA-1 ovarian tumor cells, 0%; in series [1], 25%; in series [2] it was 70%; in [3], 31%; in [4] it was 73%. For the same substance, the “Response to siRNA (% growth inhibition)” value is given as 46% in series [5]; 0% in series [6]; 0% with MCF-7 breast tumor cells; 35% with PC3 prostate tumor cells; 12% in series [7]; 10% with Hs832.Tc cells. Besides, the “Response to siRNA (% growth inhibition)” value in series [8] worked out at 23%.
